According to patent US20240174684A1, “INHIBITORS OF cGAS ACTIVITY AS THERAPEUTIC AGENTS” (BELLBROOK LABS, LLC, priority 2021, published 2024):
Read-outs that look alike come from different tables or passages of the source.

Assays:
[1] = molecular target: cGAS (Homo sapiens, UniProt Q8N884); assay: Transcreener cGAS enzymatic assay (FP); assay type: biochemical
Procedure: Structural, biochemical and biophysical analysis and selectivity profiling: Potency and MOA studies, including Mn^2+ sensitivity, were performed using the Transcreener cGAS enzymatic assay, which is manufactured at BellBrook Labs (Fitchburg, Wisconsin, USA). This homogenous cGAS enzymatic assay was developed with fluorescence polarization (FP) and time-resolved Forster resonance energy transfer (TR-FRET) readouts, as described in International Patent Publication WO 2020/142729, incorporated by reference herein in its entirety. Plates are read on a PHERAstar FSX multimode reader (BMG). The compounds of the disclosure were tested for inhibition of cGAS ([…]) using this cGAS enzymatic assay under standard conditions (100 μM ATP and GTP, 62.5 nM bp ISD, 60 minute reactions), high ATP and GTP (1 mM) to mimic physiological conditions, in the presence of 200 μM MnCl2, and with mouse cGAS under standard conditions.
The IC50 values for FP under standard and under physiological conditions were determined for several exemplary compounds of the invention. The relative activities for FP Standard IC50 are shown in Table 2 below, where A represents <50 nM; B represents 50-100 nM; C represents 100-200 nM; D represents 200 nM-1μM; and E represents 1-10 μM. For the relative activities for FP Physiological IC50, A′ represents <200 nM; B′ represents 200-500 nM; C′ represents 500 nM-1μM; D′ represents 1-5 μM; and E′ represents >5 μM.

[2] = tested on: IFN-β production in PBMCs; assay: IFNβ ELISA in human primary PBMCs; assay type: cell-based; conditions: PBMC
Text: (§1) Cellular assays: The human monocyte cell line THP-1 and human primary PBMCs were used to evaluate the cellular activity of compounds with good biochemical potency. These cells produce a robust cGAS/STING-dependent type I IFN response when stimulated with dsDNA and other pathogen-associated molecular patterns, which was detected using a standard ELISA for IFNβ (R&D Systems). The TBK1 inhibitor, BX-795, which acts downstream of cGAS/STING, was used as a probe.
(§2) The ICso values for IFNB ELISA stimulated with THP-1, PBMC, DNA, and cGAMP were determined for several exemplary compounds of the invention, and are provided in Table 3 where A represents <1 μM; B represents 1-2.5 μM; C represents 2.5-10 μM; D represents 10-20 μM; and E represents >20 μM.
The reporter gene assays were used to assess off-target activity with IRF30Luc (RIG-1) or NFKB (TLR4); CellTiter Glo (ATP levels) and Presto Blue (reducing equivalents) were used to assess cytotoxicity; all assays were performed in dose response mode. […] The inventors recently began using human PBMCs to assess cellular potency in a more physiologically relevant context.

[3] = tested on: IFNβ production in THP-1 cells; assay: IFNβ ELISA in THP-1 cells; assay type: cell-based, human; conditions: Homo sapiens; THP-1 cells
Text: as §1
CETSA was also used to confirm that the compounds are binding to cGAS in cells; THP-1 cells are used for this analysis. Compounds were tested in dose response mode by incubating with cells for 1.5 hours at 37° C., followed by pelleting and re-suspending in PBS, heating to 51.5° C. for 3 min and cooling to room temp. Cells were then lysed, debris, including denatured cGAS, was pelleted and the supernatant was analyzed for soluble cGAS by Western Blot using anti-cGAS primary Ab (Cell Signaling). Band intensity was analyzed using Image J software. Stimulation with cGAMP directly activates STING, circumventing cGAS; this was used to determine if compounds had effects on downstream components of cGAS/STING signaling. The IFN-6 ELISA was used as the primary measure of cellular potency and selectivity (Table 3) and used the reporter gene assays for assessing off-target activity with other pattern recognition receptors.
as §2

[4] = tested on: MDR1 (P-glycoprotein); assay: MDCK-MDR1 permeability A→B; assay type: in vitro ADME, Canine; conditions: dog; MDCK cells expressing human MDR1, A→B; read-out: MDCK-MDR Permeability A→B
Procedure: (§3) ADME studies: Compound A and the compounds of the disclosure were tested for aqueous solubility (KSOL), metabolic stability (human and mouse […]) and permeability (Caco-2 and/or MDR1-MDCK cells) to provide an initial indication of oral bioavailability.
(§4) The favorable physicochemical properties are reflected in promising results in in vitro ADME tests. […] Metabolic stability, which was routinely measured with mouse and human hepatocytes, is outstanding, with t, greater than 2 hours for all of the compounds of the disclosure in which it has been measured. Cell permeability was measured using MDCK cells expressing human MDR1 (P-glycoprotein) to assess passive permeability as well as active transport out of the cell. […] Numerous compounds in Table 1 meet these permeability criteria, which is consistent with their design for TPSA <140 Å^2 and increased lipophilicity.
(§5) The MDCK-MDR1 permeability A ->B is shown in Table 2 below, where A represents 5-10 cm/s×10^−6; B represents 1-5 cm/s×10^−6; and C represents <1 cm/ss×10^−6. The metabolic stability half time, in both mouse and human hepatocytes, is also shown in Table 2 below, where A′ represents 100-200 minutes; B′ represents 200-300 minutes; and C′ represents >300 minutes.

[5] = tested on: MDCK cells expressing human MDR1 (P-glycoprotein); assay: MDCK-MDR1 permeability A→B; assay type: in vitro ADME, Canine
Procedure: as §3, §4, §5

[6] = high ATP and GTP (1 mM) to mimic physiological conditions, read-out: IC50 FP Physiological
[7] = standard conditions: 100 μM ATP and GTP, 62.5 nM bp ISD, 60 minute reactions, read-out: IC50 FP Standard

Chain of cGAS (Q8N884 whole entry): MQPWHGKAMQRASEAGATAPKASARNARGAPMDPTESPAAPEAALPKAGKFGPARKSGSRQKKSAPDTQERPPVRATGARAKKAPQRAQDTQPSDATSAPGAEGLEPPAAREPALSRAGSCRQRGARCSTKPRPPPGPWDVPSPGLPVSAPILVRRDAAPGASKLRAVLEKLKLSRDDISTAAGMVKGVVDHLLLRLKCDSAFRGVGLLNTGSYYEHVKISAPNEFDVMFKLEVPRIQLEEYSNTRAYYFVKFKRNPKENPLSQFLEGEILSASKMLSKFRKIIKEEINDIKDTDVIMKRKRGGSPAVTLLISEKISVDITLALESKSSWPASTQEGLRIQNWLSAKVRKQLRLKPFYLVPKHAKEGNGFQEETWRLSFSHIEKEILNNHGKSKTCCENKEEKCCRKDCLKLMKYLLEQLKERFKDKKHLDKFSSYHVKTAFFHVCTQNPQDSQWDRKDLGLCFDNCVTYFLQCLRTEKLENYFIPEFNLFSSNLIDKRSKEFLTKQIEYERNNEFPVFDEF

IC50 [1, 6] | IC50 [1, 7] | IC50 [3] | Papp A→B [4] | MDCK-MDR Permeability A→B [5] | Structure (SMILES) | IC50 [2]
500 to 1000 nM | 100 to 200 nM | > 20000 nM |  |  | Cc1nc(N2C[C@@H](CC(=O)Nc3ccc(-c4ccnc(N)c4)cc3)C[C@H]2C(=O)O)c2oc3ccccc3c2n1 [Compound 41, (28.4R)-4-(2-((4-(2-aminopyridin-4-yl)phenyl)amino)-2-oxoethyl)-1-(2-methylbenzofuro[3,2-d]pyrimidin-4-yl)pyrrolidine-2-carboxylic acid] | > 20000 nM
1000 to 5000 nM | 200 to 1000 nM | 10000 to 20000 nM | 1 to 5 ×10⁻⁶ cm/s |  | Cc1nc(N2C[C@@H](CC(=O)Nc3ccc(N4CCCCC4)cc3)C[C@H]2C(=O)O)c2oc3ccccc3c2n1 [Compound 7, (2S,4R)-1-(2-methylbenzofuro[3,2-d]pyrimidin-4-yl)-4-(2-oxo-2-((4-(piperidin-1-yl)phenyl)amino)ethyl)pyrrolidine-2-carboxylic acid] | 10000 to 20000 nM
1000 to 5000 nM | 200 to 1000 nM | 10000 to 20000 nM | 1 to 5 ×10⁻⁶ cm/s |  | Cc1nc(N2C[C@@H](CC(=O)Nc3ccc(C(F)(F)F)cc3)C[C@H]2C(=O)O)c2oc3ccccc3c2n1 [Compound 24, (28.4R)-1-(2-methylbenzofuro[3,2-d]pyrimidin-4-yl)-4-(2-oxo-2-((4-(trifluoromethyl)phenyl)amino)ethyl)pyrrolidine-2-carboxylic acid] | 10000 to 20000 nM
1000 to 5000 nM | 100 to 200 nM | 2500 to 10000 nM | 1 to 5 ×10⁻⁶ cm/s |  | Cc1nc(N2C[C@@H](CC(=O)Nc3cccc(Cl)c3)C[C@H]2C(=O)O)c2oc3ccccc3c2n1 [Compound 22, (2S,4R)-4-(2-((3-chlorophenyl)amino)-2-oxoethyl)-1-(2-methylbenzofuro[3,2-d]pyrimidin-4-yl)pyrrolidine-2-carboxylic acid] | 10000 to 20000 nM
1000 to 5000 nM | 200 to 1000 nM | 10000 to 20000 nM | 1 to 5 ×10⁻⁶ cm/s |  | Cc1nc(N2C[C@@H](CC(=O)Nc3cccc(F)c3)C[C@H]2C(=O)O)c2oc3ccccc3c2n1 [Compound 19, (2S,4R)-4-(2-((3-fluorophenyl)amino)-2-oxoethyl)-1-(2-methylbenzofuro[3,2-d]pyrimidin-4-yl)pyrrolidine-2-carboxylic acid] | 

Second part, the compound before the results:

Structure (SMILES) | IC50 [1, 6] | IC50 [1, 7] | IC50 [3] | Papp A→B [4] | MDCK-MDR Permeability A→B [5] | IC50 [2]
Cc1nc(N2C[C@@H](CC(=O)Nc3ccc(-c4cccc(O)c4)cc3)C[C@H]2C(=O)O)c2oc3ccccc3c2n1 [Compound 51, (2S,4R)-4-(2-((3′-hydroxy-[1,1′-biphenyl]-4-yl)amino)-2-oxoethyl)-1-(2-methylbenzofuro[3,2-d]pyrimidin-4-yl)pyrrolidine-2-carboxylic acid] | < 200 nM | < 50 nM | 10000 to 20000 nM |  |  | > 20000 nM
Cc1nc(N2C[C@@H](CC(=O)Nc3ccc(-c4cccc(N)n4)cc3)C[C@H]2C(=O)O)c2oc3ccccc3c2n1 [Compound 42, (2S,4R)-4-(2-((4-(6-aminopyridin-2-yl)phenyl)amino)-2-oxoethyl)-1-(2-methylbenzofuro[3.2-d]pyrimidin-4-yl)pyrrolidine-2-carboxylic acid] | 500 to 1000 nM | 50 to 100 nM | > 20000 nM |  |  | > 20000 nM
Cc1nc(N2C[C@@H](CC(=O)Nc3ccc(-c4ccc(N)nc4)cc3)C[C@H]2C(=O)O)c2oc3ccccc3c2n1 [Compound 40, (2S,4R)-4-(2-((4-(6-aminopyridin-3-yl)phenyl)amino)-2-oxoethyl)-1-(2-methylbenzofuro[3,2-d]pyrimidin-4-yl)pyrrolidine-2-carboxylic acid] | 200 to 500 nM | < 50 nM | 10000 to 20000 nM |  |  | > 20000 nM
Cc1nc(N2C[C@@H](CC(=O)Nc3ccc(-c4ccc5cn[nH]c5c4)cc3)C[C@H]2C(=O)O)c2oc3ccccc3c2n1 [Compound 39, (28.4R)-4-(2-((4-(1H-indazol-6-yl)phenyl)amino)-2-oxoethyl)-1-(2-methylbenzofuro[3,2-d]pyrimidin-4-yl)pyrrolidine-2-carboxylic acid] | 500 to 1000 nM | 100 to 200 nM | 2500 to 10000 nM |  |  | 2500 to 10000 nM
Cc1nc(N2C[C@@H](CC(=O)Nc3ccc4cccnc4c3)C[C@H]2C(=O)O)c2oc3ccccc3c2n1 [Compound 35, (28,4R)-1-(2-methylbenzofuro[3,2-d]pyrimidin-4-yl)-4-(2-oxo-2-(quinolin-7-ylamino)ethyl)pyrrolidine-2-carboxylic acid] | 500 to 1000 nM | < 50 nM | 2500 to 10000 nM | 1 to 5 ×10⁻⁶ cm/s |  | 2500 to 10000 nM
Cc1nc(N2C[C@@H](CC(=O)Nc3ccc(OC(F)(F)F)cc3)C[C@H]2C(=O)O)c2oc3ccccc3c2n1 [Compound 12, (2S,4R)-1-(2-methylbenzofuro[3,2-d]pyrimidin-4-yl)-4-(2-oxo-2-((4-(trifluoromethoxy)phenyl)amino)ethyl)pyrrolidine-2-carboxylic acid] | > 5000 nM | 200 to 1000 nM | 1000 to 2500 nM | 5 to 10 ×10⁻⁶ cm/s |  | 2500 to 10000 nM
Cc1nc(N2C[C@@H](CC(=O)Nc3ccc4ccncc4c3)C[C@H]2C(=O)O)c2oc3ccccc3c2n1 [Compound 34, (28.4R)-4-(2-(isoquinolin-7-ylamino)-2-oxoethyl)-1-(2-methylbenzofuro[3,2-d]pyrimidin-4-yl)pyrrolidine-2-carboxylic acid] | 200 to 500 nM | < 50 nM | 2500 to 10000 nM | 1 to 5 ×10⁻⁶ cm/s |  | 2500 to 10000 nM
Cc1nc(N2C[C@@H](CC(=O)Nc3ccc(-c4cccnc4N)cc3)C[C@H]2C(=O)O)c2oc3ccccc3c2n1 [Compound 43, (28.4R)-4-(2-((4-(2-aminopyridin-3-yl)phenyl)amino)-2-oxoethyl)-1-(2-methylbenzofuro[3,2-d]pyrimidin-4-yl)pyrrolidine-2-carboxylic acid] | 500 to 1000 nM | 100 to 200 nM | > 20000 nM |  |  | > 20000 nM
Cc1nc(N2C[C@@H](CC(=O)Nc3ccc4cnccc4c3)C[C@H]2C(=O)O)c2oc3ccccc3c2n1 [Compound 33, (2S,4R)-4-(2-(isoquinolin-6-ylamino)-2-oxoethyl)-1-(2-methylbenzofuro[3,2-d]pyrimidin-4-yl)pyrrolidine-2-carboxylic acid] | 1000 to 5000 nM | 100 to 200 nM | 2500 to 10000 nM |  | C (C represents <1 cm/ss×10^−6) | 10000 to 20000 nM
